Where a name gives a salt, the structure may show the parent alone.
Assay: in vitro
Conditions: rat, gh3-tre-luc cells

SMILES	CC50 at 24 h (AC50 (uM) modified / 1000)	further results
CS(=O)(=O)NC(=O)CCC/C=C\C[C@H]1C(=O)C[C@@H](O)[C@@H]1/C=C/[C@@H](O)COc1ccccc1 [Sulprostone]	> 50 µM	
CC1(C)S[C@@H]2[C@H](NC(=O)[C@H](N)c3ccccc3)C(=O)N2[C@H]1C(=O)OCOC(=O)[C@@H]1N2C(=O)C[C@H]2S(=O)(=O)C1(C)C [Sultamicillin tosylate]	> 50 µM	
CCN1CCCC1CNC(=O)c1cc(S(=O)(=O)CC)ccc1OC (stereo not shown) [Sultopride hydrochloride]	> 50 µM	
CNS(=O)(=O)Cc1ccc2[nH]cc(CCN(C)C)c2c1 [Sumatriptan]	> 50 µM	
CCN(CC)CCNC(=O)c1c(C)[nH]c(/C=C2\C(=O)Nc3ccc(F)cc32)c1C [Sunitinib malate]	20.1 µM	
CCOCC(O)COc1ccc(NC(=O)CC[S+](C)C)cc1 (stereo not shown) [Suplatast tosylate]	> 50 µM	
CC(C(=O)O)c1ccc(C(=O)c2cccs2)cc1 (stereo not shown) [Suprofen]	> 20 µM	
Cc1ccc(C(=O)Nc2ccc(S(=O)(=O)O)c3cc(S(=O)(=O)O)cc(S(=O)(=O)O)c23)cc1NC(=O)c1cccc(NC(=O)Nc2cccc(C(=O)Nc3cc(C(=O)Nc4ccc(S(=O)(=O)O)c5cc(S(=O)(=O)O)cc(S(=O)(=O)O)c45)ccc3C)c2)c1 [Suramin]	> 50 µM	
CCc1c(C(=O)NN2CCCCC2)nn(-c2ccc(Cl)cc2Cl)c1-c1ccc(Br)cc1 [Surinabant]	12.3 µM	
O[C@H]1[C@H]2[C@H](O)CCCN2C[C@H]1O [Swainsonine]		CC50 at 24 h (AC50 (uM) modified / 1000, Tox21_110001=Tox21_112058, viability, 1 nM T3 present, 24 h): > 50 µM
COC(=O)Nc1ccc(Cl)c(Cl)c1 [Swep]	> 90 µM	
O=c1n(Cl)c(=O)n(Cl)c(=O)n1Cl [Symclosene]		CC50 at 24 h (AC50 (uM) modified / 1000, Tox21_110001=Tox21_112103, viability, 1 nM T3 present, 24 h): > 50 µM; CC50 at 24 h (AC50 (uM) modified / 1000, Tox21_110001=Tox21_300858, viability, 1 nM T3 present, 24 h): > 90 µM
CCOC(=O)Oc1c(OC)cc(C(=O)O[C@@H]2C[C@@H]3CN4CCc5c([nH]c6cc(OC)ccc56)[C@H]4C[C@@H]3[C@H](C(=O)OC)[C@H]2OC)cc1OC [Syrosingopine]	> 20 µM	
Cc1ccc(OP(=O)(Oc2ccc(C)cc2C)Oc2ccc(C)cc2C)c(C)c1 [TXP]	> 100 µM	
C=CC[C@@H]1/C=C(\C)C[C@H](C)C[C@H](OC)[C@H]2O[C@@](O)(C(=O)C(=O)N3CCCC[C@H]3C(=O)O[C@H](/C(C)=C/[C@@H]3CC[C@@H](O)[C@H](OC)C3)[C@H](C)[C@@H](O)CC1=O)[C@H](C)C[C@@H]2OC [Tacrolimus]	> 50 µM	
CN1CC(=O)N2[C@H](c3ccc4c(c3)OCO4)c3[nH]c4ccccc4c3C[C@@H]2C1=O [Tadalafil]	> 50 µM	
CC1(C)S[C@@H]2[C@H](NC(=O)[C@H](N)c3ccccc3)C(=O)N2[C@H]1C(=O)OC1OC(=O)c2ccccc21 (stereo partly shown) [Talampicillin hydrochloride]	> 20 µM	
CC(C)(C)NCC(O)COc1ccc(NC(=O)NC2CCCCC2)cc1 (stereo not shown) [Talinolol]	> 50 µM	
C=CCN1CCc2nc(N)sc2CC1 [Talipexole]	> 50 µM	
O=C1OC(OC(=O)c2cccnc2Nc2cccc(C(F)(F)F)c2)c2ccccc21 (stereo not shown) [Talniflumate]	> 50 µM	
CN1C(=O)C[C@@H](C(=O)N[C@@H](Cc2c[nH]cn2)C(=O)N2CCC[C@H]2C(N)=O)NC1=O [Taltirelin]	> 50 µM	
CC1(C)CCC(C)(C)c2cc(NC(=O)c3ccc(C(=O)O)cc3)ccc21 [Tamibarotene]	15.4 µM	
CCOc1ccccc1OCCN[C@H](C)Cc1ccc(OC)c(S(N)(=O)=O)c1 [Tamsulosin hydrochloride]	> 50 µM	
O=C1[C@@H]2[C@H]3CC[C@H](C3)[C@@H]2C(=O)N1CCCCN1CCN(c2ncccn2)CC1 [Tandospirone]	> 50 µM	
COc1cc2c(N3CCN(C(=O)Nc4ccc(OC(C)C)cc4)CC3)ncnc2cc1OCCCN1CCCCC1 [Tandutinib]	11.4 µM	
C=CCNC1=C2C[C@@H](C)C[C@H](OC)[C@H](O)[C@@H](C)/C=C(\C)[C@H](OC(N)=O)[C@@H](OC)/C=C\C=C(/C)C(=O)NC(=CC1=O)C2=O [Tanespimycin]	> 50 µM	
O=C(O)c1cccc(/C=C2/C[C@@H]3[C@@H](/C=C/[C@@H](O)C4CCCCC4)[C@H](O)C[C@@H]3O2)c1 [Taprostene sodium salt]	> 50 µM	

Reference: PMC6792352, “Limited Chemical Structural Diversity Found to Modulate Thyroid Hormone Receptor in the Tox21 Chemical Library” (Environmental Health Perspectives, 2019)
